Tests used:
[1] = tested on: CHP-212; assay: OncoPanel cell proliferation assay, CHP-212; conditions: CHP-212, scale 0-10
Procedure: (§7) Cells were seeded into 384-well plates and incubated in a humidified atmosphere of 5% CO2 at 37° C. Compounds were added the day following cell seeding. At the same time, a time zero untreated cell plate was generated. After a 3-day incubation period, cells were fixed and stained to allow fluorescence imaging of nuclei. Compounds (1 mM stock solutions) were serially diluted in half-log steps from the highest test concentration (1 micromol), and assayed over 10 concentrations with a maximum assay concentration of 0.1% DMSO. Automated fluorescence microscopy was carried out using a Molecular Devices ImageXpress Micro XL high-content imager, and images were collected with a 4× objective. 16-bit TIFF images were acquired and analyzed with MetaXpress 5.1.0.41 software.

[2] = tested on: CaOV3; assay: OncoPanel cell proliferation assay, CaOV3; type: cell-based, human; conditions: CaOV3, scale 0-10
Procedure: (§1) Cells were grown in RPMI 1640, 10% FBS, 2 mM L-alanyl-L-glutamine, 1 mM Na pyruvate, or a special medium. Cells were seeded into 384-well plates and incubated in a humidified atmosphere of 5% CO2 at 37° C. Compounds were added the day following cell seeding. At the same time, a time zero untreated cell plate was generated. After a 3-day incubation period, cells were fixed and stained to allow fluorescence imaging of nuclei. Compounds (1 mM stock solutions) were serially diluted in half-log steps from the highest test concentration ([…]), and assayed over 10 concentrations with a maximum assay concentration of 0.1% DMSO. Automated fluorescence microscopy was carried out using a Molecular Devices ImageXpress Micro XL high-content imager, and images were collected with a 4× objective. 16-bit TIFF images were acquired and analyzed with MetaXpress 5.1.0.41 software.
(§2) Cell proliferation was measured by the fluorescence intensity of an incorporated nuclear dye. The output is referred to as the relative cell count, where the measured nuclear intensity is transformed to percent of control (POC) using the following formula: […]
(§3) Cellular response parameters were calculated using nonlinear regression to a sigmoidal single-site dose response model:
(§4) Where y is a response measured at concentration x, A and B are the lower and upper limits of the response, C is the concentration at the response midpoint (EC50), and D is the Hill Slope (Ref. 1).
(§5) EC50 is the test compound concentration at the curve inflection point or half the effective response (parameter C of the fitted curve solution). GI50 is the concentration needed to reduce the observed growth by half (midway between the curve maximum and the time zero value). “Cell Count Activity Area” is an estimate of the integrated area above the curve (Barretina, et al. The Cancer Cell Line Encyclopedia enables predictive modelling of anticancer drug sensitivity. Nature 483: 603-607). […] In rare instances, values <0 or >10 may be observed. […] Curve-fitting, calculations, and report generation was performed using a custom data reduction engine and MathIQ based software (AIM).

[3] = tested on: SW579; assay: OncoPanel cell proliferation assay, SW579; type: cell-based, human
Procedure: as §1, §2, §3, §4, §5

[4] = tested on: A431; assay: OncoPanel cell proliferation assay, A431; type: cell-based, human; conditions: A431, scale 0-10
Procedure: as §1, §2, §3, §4, §5

[5] = tested on: SNU-5; assay: OncoPanel cell proliferation assay, SNU-5; type: cell-based, human; conditions: SNU-5, scale 0-10
Procedure: as §1, with “Cells” for “Cells were grown in RPMI 1640, 10% FBS, 2 mM L-alanyl-L-glutamine, 1 mM Na pyruvate, or a special medium. Cells”
as §2, §3, §4
(§6) GI50 is the concentration needed to reduce the observed growth by half (midway between the curve maximum and the time zero value). […] In rare instances, values <0 or >10 may be observed. […] Curve-fitting, calculations, and report generation was performed using a custom data reduction engine and MathIQ based software (AIM).

[6] = tested on: ST486; assay: OncoPanel cell proliferation assay, ST486; type: cell-based, human; conditions: ST486, scale 0-10
Procedure: as §1, §2, §3, §4, §5

[7] = tested on: AGS; assay: OncoPanel cell proliferation assay, AGS; type: cell-based, human; conditions: scale 0-10
Procedure: as §1, §2, §3, §4, §5

[8] = tested on: A388; assay: OncoPanel cell proliferation assay, A388; type: cell-based, human; conditions: A388, scale 0-10
Procedure: as §1, with “Cells” for “Cells were grown in RPMI 1640, 10% FBS, 2 mM L-alanyl-L-glutamine, 1 mM Na pyruvate, or a special medium. Cells”
as §2, §3, §4, §6

[9] = tested on: NCI-H510A; assay: OncoPanel cell proliferation assay, NCI-H510A; type: cell-based, human; conditions: scale 0-10
Procedure: as §1, §2, §3, §4, §5

[10] = tested on: CAMA-1; assay: OncoPanel cell proliferation assay, CAMA-1
Procedure: as §7

[11] = tested on: SK-NEP-1; assay: OncoPanel cell proliferation assay, SK-NEP-1; conditions: SK-NEP-1, scale 0-10
Procedure: as §7

In the case of `CN[C@@H]1C[C@H]2O[C@@](C)([C@@H]1OC)n1c3ccccc3c3c4c(c5c6ccccc6n2c5c31)C(=O)NC4` [Staurosporine, reference compound], the “Cell Count Activity Area” value [1] is reported as 4.80, the “Cell Count Activity Area” value [2] is reported as 5.31 and the EC50 ([3]; Homo sapiens, 72 h, SW579, 3-day incubation, read-out: Cell Count EC50) is reported as 0.52 nM. The “Cell Count Activity Area” value ([3]; SW579, scale 0-10) was 6.09, the “Cell Count Activity Area” value [4] was 5.64 and the “Cell Count Activity Area” value [5] was 2.58. The “Cell Count Activity Area” value [6] was 4.89, the “Cell Count Activity Area” value [7] was 6.19 and the “Cell Count Activity Area” value [8] was 4.99. For the same compound, the “Cell Count Activity Area” value [9] was 1.68, the “Cell Count Activity Area” value ([10]; CAMA-1, scale 0-10) was 2.99 and the GI50 ([10]; Homo sapiens, CAMA-1, 72 h, read-out: Cell Count GI50) was 12 nM. The IC50 ([10]; Homo sapiens, CAMA-1, 72 h, read-out: Cell Count IC50) was 99 nM and the “Cell Count Activity Area” value [11] was 2.78.

— patent US20210024542A1 (Torcept Therapeutics, Inc., priority 2018, published 2021)
